Data reported in article PMC9496453 (2022).

Assays:
[1] = system: OTC5 (DNA, aptamer) GACGACATTCCGTTGATCTCTCCCTTTTGGGTTGGTGTCGTC; test: ITC; details: 2 mM Mg2+; 10 mM Tris pH 8.3; 0.2 μM at pH 6.0 (10 mM MES)
[2] = system: OTC5 (DNA, aptamer) GACGACATTCCGTTGATCTCTCCCTTTTGGGTTGGTGTCGTC; test: intrinsic fluorescence enhancement titration; details: 50 mM NaCl, 2 mM MgCl2, 10 mM Tris HCl pH 8.3, binding lost without Mg2+

CN(C)[C@@H]1C(=O)C(C(N)=O)=C(O)[C@@]2(O)C(=O)C3=C(O)c4c(O)cccc4[C@@](C)(O)[C@H]3[C@H](O)[C@@H]12
KD [1]: 30 nM
KD ([2]; 0.14 µM at acidic pH (printed 6.3)): 60 nM

C[C@H]1c2cccc(O)c2C(=O)C2=C(O)[C@]3(O)C(=O)C(C(N)=O)=C(O)[C@@H](N(C)C)[C@@H]3[C@@H](O)[C@@H]21
KD ([2]; 0.39 µM at pH 6.0): 240 nM

CN(C)[C@@H]1C(=O)C(C(N)=O)=C(O)[C@@]2(O)C(=O)C3=C(O)c4c(O)cccc4[C@@](C)(O)[C@H]3C[C@@H]12
KD ([2]; 0.36 µM at acidic pH (printed 6.3)): 160 nM
